From a melting point compilation (Tetko et al.; mined from patent text by program, amines drawn as free bases though some values may be those of a salt) come the findings set out here.

By melting point is commonly meant the temperature, or range, at which the solid turns liquid. Molecule `O=C(c1ccc(-c2ccn(C(=O)c3ccc(F)cc3Cl)n2)cc1)N1Cc2cccn2Cc2ccccc21` gave a melting point of 150 to 157 °C.

Regarding `Cc1ccc2c(c1Cl)S(=O)(=O)N=CN2C1CC1`, the melting point lay within 218 to 223 °C.

Consider `Cc1cccc(COc2cccc(O)c2)c1C(=O)O`, for which the melting point lay within 112 to 113 °C.

As to `NC(=O)COC(=O)c1c(F)cccc1F`, the melting point is 108 to 110 °C.

`CC(COc1ccc(CC2SC(=O)NC2=O)cc1)N1CC(COc2cccc(Cl)c2)OC1=O` (stereo not given) had a melting point of 48 to 53 °C.

In the case of `Cn1nnnc1SCCCCSC1=Nc2ccccc2C(=O)NN1`, the melting point is 94 to 95 °C.

The molecule `CCCc1ccnc2c(=O)[nH]c(-c3cc(S(=O)(=O)NC)ccc3OCC)nc12` registered a melting point of 216 to 219 °C.

As to `O=C(CCCCCN1CCN(c2ccccc2)CC1)Nc1ccc(O)cc1`, the melting point was in the range of 157 to 159 °C.

`CC(=O)Nc1ccc(OCC2CCN(CC(O)COc3cccc4c3CCN4C=O)CC2)cc1` (stereo not given) returned a melting point of 177 to 179 °C.

Turning to `CS(=O)(=O)c1ccc(-c2cnn(CC(F)(F)F)c(=O)c2Sc2ccc(F)cc2)cc1`, the melting point was in the range of 182 to 185 °C.

With `CN(CC#N)S(=O)(=O)c1cc(-n2c(=O)cc(C(F)(F)F)n(C)c2=O)c(F)cc1Cl`, the melting point was 155 to 157 °C.

`CCOC(=O)C1=C(C)NC(=S)N(C(=O)OCC)C1c1cccc(C#N)c1` (stereo not given) came in with a melting point of 155 to 156 °C.

The molecule `Cc1cc2cc(O)c(Cl)c(Cl)c2s1` yielded a melting point of 93 to 95 °C.

Molecule `COc1cccnc1OCC(O)CO` (stereo not given) displayed a melting point of 62 to 65 °C.

As to `Cc1cc([N+](=O)[O-])cc(C)c1Oc1ccc([N+](=O)[O-])c(Nc2ccc(C#N)cc2)n1`, the melting point was in the range of 250 to 252 °C.

In turn, `Cc1ccc(Oc2ccccc2C(=O)O)c(NS(=O)(=O)c2cc(C(F)(F)F)cc(C(F)(F)F)c2)c1` had a melting point of 165 to 166 °C.

The molecule `CCC(=O)Nc1ccc(OC)cc1OC` returned a melting point of 63 to 65 °C.

Regarding `COCc1cccc(-c2coc3ccc(-c4nnc(C)o4)cc23)c1`, the melting point is 111 to 112 °C.

In the case of `N#Cc1cccc(S(=O)(=O)n2c(=O)[nH]c3cc(Cl)ccc3c2=O)c1`, the melting point lay within 225 to 226 °C.

The molecule `Cc1nsc(N=Nc2ccc(N(CCO)CCO)cc2NC(=O)C(C)C)c1C#N` yielded a melting point of 152 to 154 °C.

Molecule `Cc1ccccc1-c1cnc2c(C(F)(F)F)cccc2c1-c1cccc(N)c1` yielded a melting point of 148 to 151 °C.

Regarding `COc1cccc(CC(=O)O)c1OCCCc1cn(-c2ncc(C#N)cn2)nc1C(C)C`, the melting point was 167 to 168 °C.

`CC1CC(C)CN(CCNc2ccnc3cc(Cl)ccc23)C1` (stereo not given): the melting point is 142 to 143 °C.

`O=C(O)c1ccc(NC(=O)C(F)(F)F)cc1`: the melting point fell in the range of 277 to 278 °C.

Take `COP(=O)(OC)C1CC(c2ccc([N+](=O)[O-])cc2)=NO1` (stereo not given): the melting point is 156 to 158 °C.

Molecule `COc1ccc(NC(=O)c2ccccc2-c2cccc(F)c2)cc1` came in with a melting point of 161 to 163 °C.

Molecule `SCCC1c2ccccc2-c2ccccc21` yielded a melting point of 38 to 40 °C.

Molecule `Nc1n[nH]c(-c2cc(Cl)nc(Cl)c2)n1` registered a melting point of 240 to 250 °C.

`N#CSc1ccc(SCc2ncon2)cc1` showed a melting point of 78 °C.

Molecule `CCn1nc2c(n1)C(N1CCN(C)CC1)=Nc1cc(Cl)ccc1N2` gave a melting point of 180 to 182 °C.

With `CC(C)(C)OC(=O)N1CCC2(CC1)C(=O)NCN2c1ccccc1`, the melting point lay in the range of 213 to 214 °C.

Molecule `CNC(=O)C(Cc1ccc(OCCc2nc(-c3ccccc3)oc2C)cc1)C(=O)NC` came in with a melting point of 217 to 219 °C.

The molecule `OCCOc1ccc(Cn2ccnc2)cc1` displayed a melting point of 81 to 82 °C.

As for `CCS(=O)(=O)N[C@H](C(=O)NCCc1ccc(OCc2ccc(Cl)s2)c(OC)c1)C(C)C`, the melting point lay in the range of 124 to 127 °C.

`O=C(Nc1cc(C(F)(F)F)cc2c(Cl)ccnc12)c1c(Cl)cccc1Cl` registered a melting point of 150 to 157 °C.

As to `COC(=O)c1cccc2oc(SCCN3CCN(CC(=O)Nc4c(C(C)C)cccc4C(C)C)CC3)nc12`, the melting point lay within 173 to 175 °C.

For `COc1ccc2c(c1)N(C1CN3CCC1CC3)c1ccccc1S2` (stereo not given), the melting point came to 158 °C.

As for `CC(C)COc1ccc(C(=O)N/C(=C\c2ccc(OC(F)F)cc2)C(=O)NCCO)cc1`, the melting point was in the range of 75 to 78 °C.

In turn, `COc1ccc(F)cc1C(C)(C)CC(O)(Cn1[nH]c(=O)c2ccccc21)C(F)(F)F` (stereo not given) registered a melting point of 141 to 144 °C.

`Cc1cc([N+](=O)[O-])ccc1N=C1SCC2(CCCC2)N1C1CCCC1` showed a melting point of 118 to 119 °C.

The molecule `CN(C)CCCCCCNc1nc2cc(Cl)c(Cl)cc2nc1-c1ccccn1` registered a melting point of 88 to 90 °C.

In turn, `CCCCCCCCCC(=O)Nc1cc(C(=O)O)ccc1C` showed a melting point of 246 to 250 °C.

For the molecule `COCc1ncccc1CN(CCn1ccc2oc(C)cc2c1=O)Cc1ccc2c(c1)NC(=O)C(C)(C)C(=O)N2CC1CC1`, the melting point fell in the range of 189 to 191 °C.

With `Nc1nc(OCC2CC2)c2ncn(C3CC(F)C(CO)O3)c2n1` (stereo not given), the melting point lay in the range of 80 to 81 °C.

The molecule `O=C1Oc2ccccc2Sc2ccccc21` gave a melting point of 124 °C.

For `COC(=O)c1ccc2c(c1)SCCCC2=O`, the melting point is 63 to 64 °C.

The molecule `COc1ccc(C(=O)[C@H]2CCCN2C(=O)C(F)(F)F)cc1OC` gave a melting point of 121 to 123 °C.

The molecule `CC1(C)Nc2ccc(Cl)cc2N(C2CC2)C1=O` showed a melting point of 132 to 133 °C.

`Cc1ccc2c(c1)NC(=O)c1cscc1O2` registered a melting point of 209 to 213 °C.

`N#Cc1ccc(S(=O)(=O)c2ccc(O)cn2)cc1` displayed a melting point of 225 to 226 °C.

Turning to `CCc1cc(-c2ccc(Cl)cc2)nc2c(C(=O)Nc3cccc(S(N)(=O)=O)c3)cnn12`, the melting point fell in the range of 252 to 253 °C.

In turn, `CC(C)(O)CCCCCc1cccc(C=Cc2cc(CO)cc(CO)c2)c1` returned a melting point of 108 to 109 °C.

As to `Cc1sc(CCc2ccc(/C=C/CO)cc2)nc1-c1ccccc1`, the melting point was 93 to 94 °C.

As to `N#CCc1ccc(OCCc2coc(-c3ccccc3)n2)cc1`, the melting point fell in the range of 81 to 83 °C.

Take `COC(=O)c1ccc(CNC(=O)c2c(N)cc(Cl)cc2Cl)cc1`: the melting point lay within 132 to 137 °C.

Consider `CCOc1cccn2nc(-c3ccccc3)c(-c3ccc(=O)n(C(C)C)n3)c12`, for which the melting point was 157 to 158 °C.

Molecule `CCCCc1nc(I)c(C=O)[nH]1` had a melting point of 80 to 85 °C.

The molecule `COc1cccc2c1C[C@H]1C[C@@H](CCN3CCC(O)(c4ccc(Cl)cc4)CC3)CN(C)[C@@H]1C2` yielded a melting point of 212 to 215 °C.

`Cn1c(-c2ccccc2)c(C(=O)CCn2ccnc2)c2ccccc21`: the melting point lay within 159 to 162 °C.

With `Cc1csc2nc3c(c(NC(=O)CN4C(=O)NC(=O)[C@@H]4C)c12)CCCC3`, the melting point lay within 273 to 277 °C.

Molecule `Cc1oc(-c2ccccc2)nc1COc1cccc(CSc2cccc(CCC(=O)O)c2)c1` returned a melting point of 120 to 121 °C.

For the molecule `CCn1cc(C(=O)O)c(=O)c2cc(F)c(N3Cc4ccccc4C3)cc21`, the melting point is over 300 °C.

`CCCCNC(N)=Nc1nc(-c2cccc(CNC(C)=O)n2)cs1`: the melting point lay within 145 to 146 °C.

In turn, `CC(=O)NC[C@H]1CN(c2ccc3c(c2)CCS(=O)(=O)C3)C(=O)O1` yielded a melting point of 177 to 178 °C.

Molecule `COc1cc2nc(SC)c(C#N)c(C)c2cc1OCc1ccccc1` showed a melting point of 171 to 174 °C.

With `CC(C)C(=O)OC1C(n2ccc(N)nc2=O)OC(COC(=O)c2ccc(Cl)cc2)C1(C#C[Si](C)(C)C)OC(=O)C(C)C` (stereo not given), the melting point was in the range of 97 to 99 °C.

As for `O=C1OCc2c(c3cc(-c4ccc(-c5ccccc5)cc4)ccc3n2Cc2ccccc2)C1=O`, the melting point fell in the range of 254 to 255 °C.

Take `CSc1nncc(-c2ccccc2)n1`: the melting point lay within 99 to 100 °C.

For the molecule `O=C1NCCSc2ccsc21`, the melting point was in the range of 186 to 188 °C.

For the molecule `C#CCOc1nc(-n2ccnc2)c(I)c(C(F)(F)F)n1`, the melting point is 128 to 129 °C.

In the case of `CSCc1cn(C)c2cc(Br)ccc2c1=O`, the melting point was in the range of 168 to 170 °C.

Regarding `C=Cc1cc(O)cc2nc(-c3ccc(OP(=O)(OCC)OCC)c(F)c3)oc12`, the melting point is 134 to 136 °C.

`Cc1nnc(-c2ccc3occ(-c4cnn(C)c4)c3c2)o1` returned a melting point of 147 to 148 °C.

`CCOC(=O)C(O)(CC(C)(C)c1ccc(OC)cc1)C(F)(F)F` (stereo not given): the melting point was in the range of 79 to 80 °C.

For the molecule `CCc1c(C(=O)C(N)=O)c2c(OCC(=O)NOCc3ccccc3)cccc2n1Cc1ccccc1`, the melting point lay within 167 to 169 °C.

In turn, `N#CCC=C1c2ccccc2C=Cc2ccccc21` had a melting point of 95 to 101 °C.

In turn, `O=C(O)CNC(=O)Nc1cccc(C(=O)O)c1` came in with a melting point of 196 to 197 °C.

For `Cc1cc2c(cc1C)C1(O)C(=O)c3ccccc3C1(O)O2` (stereo not given), the melting point fell in the range of 198 to 200 °C.

`COc1cc(COc2ncccc2C#N)ccc1OCc1nc(-c2ccco2)oc1C` yielded a melting point of 137 to 138 °C.

Molecule `CC(C#Cc1ccc(C=Cc2ccccc2)o1)N(O)C(N)=O` (stereo not given) had a melting point of 168 °C.

With `CCn1nc(C#N)c(Nc2ccc(F)cc2[N+](=O)[O-])n1`, the melting point was 115 to 116 °C.

`CC1(C)OC(=O)C(COS(C)(=O)=O)(c2ccc(Cl)cc2Cl)O1` (stereo not given) registered a melting point of 98 to 100 °C.

Turning to `Cc1c(OCC(F)(F)F)ccnc1CS(=O)c1nc2cc(-n3ccnc3)c(F)cc2[nH]1` (stereo not given), the melting point was in the range of 234 to 235 °C.

Turning to `CCCC(C)Oc1cc(-n2c(=O)cc(C(F)(F)F)n(C)c2=O)c(F)cc1Cl` (stereo not given), the melting point lay in the range of 94 to 97 °C.

Turning to `NC(=NCC(F)(F)F)Nc1ccnc(OCCCCO)n1.[H][H]`, the melting point was 189 to 190 °C.

`O=C(O)c1nn(-c2ccc(F)cc2F)c2c1[C@H]1CC[C@@H]2C1` had a melting point of 110 to 112 °C.

`COc1ccc(Oc2ccc(OC(=O)NC(C)CCCC(C)C)cc2)cc1` (stereo not given) showed a melting point of 64 to 65 °C.

As to `COc1cc(OC)c(F)c(N2Cc3cnc(SC)nc3N(C3CC3)C2=O)c1F`, the melting point is 173 to 176 °C.

Regarding `COC(=O)c1ccc(OCCNC(=O)c2ccc(C(C)C)cc2)cc1`, the melting point is 89 to 91 °C.

`O=C1CC2(C(=O)N1)C(=O)N1CCOc3cc(Cl)cc2c31` (stereo not given): the melting point was in the range of 260 to 262 °C.
